Test results: patent publication US11618747B2, “LXR modulators with bicyclic core moiety” (OrsoBio, Inc., priority 2018, dated 2023)
Like-named read-outs stand apart in the source and are kept apart here.

Legend:
[1] = target: T1, ligand-binding domain (LBD) of LXRβ (Homo sapiens, UniProt P55055, DUP175-175); assay: LXR Gal4 reporter transient transfection assay (LBD-M2H Gal4β); assay type: cell-based; conditions: HEK293 cells
T1 construct: LXRβ (amino acids 156-461); expressed in transfected cells; host or cells: HEK293
T1 sequence (P55055 with tags, fused parts or gaps DUP175-175 limits assumed): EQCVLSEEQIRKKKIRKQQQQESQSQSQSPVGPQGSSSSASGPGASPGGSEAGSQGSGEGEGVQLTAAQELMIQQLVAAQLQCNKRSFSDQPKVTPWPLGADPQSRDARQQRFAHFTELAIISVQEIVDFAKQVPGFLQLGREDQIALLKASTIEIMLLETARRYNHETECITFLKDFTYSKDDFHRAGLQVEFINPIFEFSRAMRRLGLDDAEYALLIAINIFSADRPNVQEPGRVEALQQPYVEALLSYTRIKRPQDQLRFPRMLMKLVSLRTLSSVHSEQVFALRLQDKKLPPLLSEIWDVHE
Procedure, shortened: (§1)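 HEK293 cells were transiently co-transfected with NFkB activation-domain fusions of LXR (full length or LBD) and GAL4 DNA-binding-domain fusions of SRC1 (aa 552-887) or NCoR (aa 1906-2312), plus a GAL4-response-element Firefly luciferase reporter and a Renilla control. Compounds were added 4 h post-transfection, cells incubated 16 h, then dual luciferase read.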

[2] = target: T2, ligand-binding domain (LBD) of LXRα (Homo sapiens, UniProt Q13133); assay: LXR Gal4 reporter transient transfection assay (LBD-M2H Gal4α); assay type: cell-based; conditions: HEK293 cells
T2 construct: expressed in transfected cells; host or cells: HEK293
T2 sequence (Q13133 155-447): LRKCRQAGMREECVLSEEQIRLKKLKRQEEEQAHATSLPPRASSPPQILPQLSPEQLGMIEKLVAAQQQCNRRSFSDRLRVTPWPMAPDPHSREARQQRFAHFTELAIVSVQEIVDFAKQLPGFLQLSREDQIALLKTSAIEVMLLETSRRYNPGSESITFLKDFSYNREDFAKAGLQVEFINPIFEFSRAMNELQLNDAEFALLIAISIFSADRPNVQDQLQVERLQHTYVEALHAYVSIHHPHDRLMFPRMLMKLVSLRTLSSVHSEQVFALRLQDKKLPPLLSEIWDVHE
Procedure, shortened: as §1

[3] = LXRβ LBD, read-out: LBD-M2H Gal4β (EC50 range)
[4] = LXRα LBD, read-out: LBD-M2H Gal4α (EC50 range)

Which results are given for `Cc1ccc(S(=O)(=O)n2c(-c3cccc(N4CC(C(=O)O)C4)c3)c(-c3ccsc3C#N)c3cc(F)ccc32)cc1` [3/32]?
LBD-M2H Gal4β efficacy (value in brackets) [1]: 81%; EC50 ([1]; read-out: LBD-M2H Gal4β potency): 13 nM; LBD-M2H Gal4α efficacy (value in brackets) [2]: 103%; EC50 ([2]; read-out: LBD-M2H Gal4α potency): 106 nM

`Cc1ccc(S(=O)(=O)n2c(-c3cccc(N4CC(C(=O)O)C4)c3)c(-c3ccsc3C#N)c3cc(F)c(F)cc32)cc1` [3/42] was tested. Which EC50 [1, 3] did it give?
The EC50 was under 100 nM.

And the EC50 [2, 4]?
Its EC50 is 100 to 1000 nM.

What does the source list for `Cc1ccc(S(=O)(=O)n2c(-c3cccc(N4CC(C(=O)O)C4)c3)c(-c3ccsc3C#N)c3cc(F)c(Cl)cc32)cc1` [3/43]?
EC50 [1, 3]: 100 to 1000 nM; EC50 [2, 4]: 100 to 1000 nM

How did the EC50 [1, 3] turn out when `Cc1ccc(S(=O)(=O)n2c(-c3cccc(N4CC(C(=O)O)C4)c3)c(-c3ccsc3C#N)c3cc(Cl)ccc32)cc1` [3/44] was run?
Its EC50 is under 100 nM.

What about the EC50 [2, 4] of the same compound?
Its EC50 is under 100 nM.

Which results are given for `Cc1ccc(S(=O)(=O)n2c(-c3cccc(N4CC(C(=O)O)C4)c3)c(-c3ccsc3C#N)c3cc(C)ccc32)cc1` [3/46]?
EC50 [1, 3]: < 100 nM; EC50 [2, 4]: < 100 nM
